In US6900194B1, “Use of substituted 4-biarylbutyric and 5-biarylpentanoic acid derivatives as matrix metalloprotease inhibitors for the treatment of respiratory diseases” (Bayer Aktiengesellschaft, priority 1998, dated 2005) one finds IC50 and Ki data, which are given here for 2 molecules.

The target in one experiment is T1, Rat MMP-13 (Rattus norvegicus, UniProt P23097).
T1 construct: Rat pro-MMP-13 was obtained according to the protocol of Roswit, Arch; Biochem. Biophys
The experiment can be described thus: P218 quenched fluorescence assay, MMP-13 (rat). The settings on record: read-out: IC50 vs. MMP-13 (value marked *). Format: biochemical. The text has this: P218 Quenched Fluorescence Assay for MMP Inhibition:
This assay is adapted from the one described by Knight et al., FEBS Letters, 296, 263-266 (1992) for MMP-3 and a related substrate. The rate of hydrolysis of the synthetic substrate H-MCA-Pro-Lys-Pro-Leu-Ala-Leu-DPA-Ala-Arg-NH2 (P218) by the respective MMPs is monitored fluorometrically, using an excitation wavelength of 340 nm and an emission wavelength of 395 nm, in the presence or absence of the test compounds. The substrate is made up initially in 100% DMSO to a concentration of 1×10^−2 M, then diluted in assay buffer to a final concentration of 20 μM. […] The total assay volume in a 96 well microtitre plate is 150 μl, Cleavage of the substrate between the Leu-Ala residues allows the fluorescence of the MCA group to be detected on a fluorometer (Cytofluor II) following excitation at 340 nm and emission at 395 nm. Change in fluorescence is continually monitored for a 40 min period.
The Ki's are calculated using the method described by Williams and Morrison, Methods in Enzymology, 63, 437-467 (1979) to measure Ki apparent for tight binding inhibitors, and is summarised as follows: [I]0/(1−vi/v0)=Ki apparent ×vi/v0+[E]0 [I]0 and [E]0 are inhibitor and enzyme concentrations, and vi/v0 are reaction velocities with/without inhibitor. […]
IC50's are determined at each enzyme concentration using Xlfit software. […]

The target of another experiment is MMP-2 (Gelatinase A) (Homo sapiens, UniProt P08253). The experiment is described as follows: biochemical.
MMP-2 (Gelatinase A), sequence (P08253 110-660): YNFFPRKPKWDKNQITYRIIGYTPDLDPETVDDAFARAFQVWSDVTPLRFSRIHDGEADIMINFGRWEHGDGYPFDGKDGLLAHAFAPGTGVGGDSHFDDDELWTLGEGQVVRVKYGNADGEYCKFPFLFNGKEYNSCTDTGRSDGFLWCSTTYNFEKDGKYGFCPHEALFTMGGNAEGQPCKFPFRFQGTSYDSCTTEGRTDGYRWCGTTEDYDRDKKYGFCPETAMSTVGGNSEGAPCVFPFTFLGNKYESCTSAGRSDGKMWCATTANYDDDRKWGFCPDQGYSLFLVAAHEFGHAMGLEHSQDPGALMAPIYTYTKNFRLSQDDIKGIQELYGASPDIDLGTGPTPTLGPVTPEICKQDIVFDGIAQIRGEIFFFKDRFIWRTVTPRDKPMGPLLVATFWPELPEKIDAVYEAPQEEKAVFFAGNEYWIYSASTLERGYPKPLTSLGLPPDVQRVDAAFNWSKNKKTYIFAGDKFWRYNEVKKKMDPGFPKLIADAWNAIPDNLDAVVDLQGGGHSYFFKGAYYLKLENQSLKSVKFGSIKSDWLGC

Broadly, the IC50 is the midpoint of a concentration-inhibition curve. Usually Ki stands for the equilibrium dissociation constant of an inhibitor or competing ligand from its target. Low readings indicate a stronger hold on the target, high ones a looser hold on the target. For the molecule `O=C(CC(CCN1C(=O)c2ccccc2C1=O)C(=O)O)c1ccc(-c2ccc(Cl)cc2)cc1` (single isomer, unassigned; (+)) [Example 4, (+)-4-(4′-Chloro[1,1′-biphenyl]4-yl)-2-[2-(1,3-dioxo-1,3-dihydro-2H-isoindol-2-yl)ethyl]-4-oxobutanoic acid], the IC50 at Rat MMP-13 is 0.296 µM. The same molecule returned an inhibition constant Ki at MMP-2 (Gelatinase A) of 0.0005 µM.
Regarding `CCOc1ccc(-c2ccc(C(=O)CC(CCN3C(=O)c4ccccc4C3=O)C(=O)O)cc2)cc1` (single isomer, unassigned; (+)) [Example 2, (+)-2-[2-(1,3-Dioxo-1,3-dihydro-2H-isoindol-2-yl)ethyl]-4-(4′-ethoxy[1,1′-biphenyl]-4-yl)-4-oxobutanoic acid], the IC50 is 0.069 µM on Rat MMP-13 and 0.0032 µM at MMP-2 (Gelatinase A).
